Where two headings read alike, the source gives them in different places.
Key:
[1] = Full PK analysis and oral administration, brain and plasma levels; format: in vivo, mice; details: for half-life: 2 mg/kg, full PK analysis, FIG. 6A
Experimental: FIG. 6. (A) Brain and plasma level of F4 (CNDR-51362) after i.v. administration at 2 mg/Kg; (B) Brain and plasma level of F4 (CNDR-51362) after oral administration at 5 mg/Kg; (C) Brain and plasma level of F3 (CNDR-51349) after oral administration at 5 mg/Kg
Test compounds underwent preliminary evaluations of brain penetration, in which 5 mg/Kg of each compound was administered intraperitoneally (i.p.) to a group of three normal mice; drug levels in brain and plasma were determined at a single time-point (1 h) by LC-MS/MS using pre-validated calibration curves. […] However, both esters appeared to have relatively short half-lives in plasma, as indicated by the limited amount of parent drug detected after 1 h from administration of the compounds. […] CNDR-51362 was selected for full PK analysis in which brain and plasma drug levels were determined at six time points (i.e., 30 min, 1 h, 2 h, 4 h, 8 h, and 16 h). The results from this experiment, illustrated in FIG. 6A, confirmed that the total B/P exposure ratio over 16 h is 1.6. […] Finally, in order to investigate the potential for ATPZ congeners to be orally administered, we evaluated brain and plasma level of CNDR-51362 and CNDR-51349 after oral administration of 5 mg/Kg.
Brain tissue was homogenized in 10 mM ammonium acetate, pH 5.7 (1:2; w/v) using a handheld sonic homogenizer. Plasma was obtained from blood that was collected into a 1.5 mL tube containing 0.5M EDTA solution and subjected to centrifugation for 10 min. at 4500 g at 4° C. Aliquots (50 μL) of brain homogenate or plasma were mixed with 0.2 mL of acetonitrile, centrifuged at 15,000 g, and the resulting supernatants were used for subsequent LC-MS/MS analysis. The LC-MS/MS system was comprised of an Aquity HPLC and a TQ MS that was controlled using MassLynx software (Waters Corporation, Milford, Mass., USA). Compounds were detected using multiple reaction monitoring (MRM) of their specific collision-induced ion transitions. Samples (5 μL) were separated on an Aquity BEH C18 column (1.7 μm, 2.1×50 mm) at 35° C. Operation was in positive electrospray ionization mode, with mobile phase A of 0.1% (v/v) formic acid, and B of either acetonitrile or methanol with 0.1% (v/v) formic acid at a flow rate of 0.6 mL/min using a gradient from 5% to 95% B over two min., followed by wash and re-equilibration steps. The MS was operated with a desolvation temperature of 450° C. and a source temperature of 150° C. Desolvation and source nitrogen gas flows were 900 L/hr and 50 L/hr, respectively. Source and MS/MS voltages were optimized for each compound using the MassLynx auto tune utility. Standard curves were generated for each compound from brain homogenate and plasma samples that had compound added at 4, 40, 400 and 4000 ng/mL and extracted as above. Peak areas were plotted against concentration and a 1/x weighted linear regression curve was used to quantify the tissue-derived samples using the average peak area from triplicate injections.

Row | Kp at 16 h ([1]; mouse, brain and plasma, iv, over 16 h, six time points, FIG. 6A (i.v. 2 mg/Kg), read-out: Total brain-to-plasma (B/P) AUC exposure ratio) | half-life ([1]; mouse, brain, iv, read-out: Elimination half-life in the brain (converted)) [h] | half-life ([1]; mouse, plasma, iv, read-out: Elimination half-life in plasma (converted)) [h] | bioavailability ([1]; mouse, plasma AUC after oral 5 mg/Kg versus i.v. 2 mg/Kg) [%] | Brain concentration after oral administration ([1]; oral 5 mg/Kg, FIGS. 6B and 6C, 5 mg/kg) | melting point [°C] | Compound
1 | 1.6 | ~9.5 | ~7.4 | ~64 | significant brain concentrations |  | Nc1scc2c(C(=O)NC3CC3)nn(-c3ccc(Cl)cc3)c(=O)c12 [CNDR-51362, 5-Amino-3-(4-chlorophenyl)-N-cyclopropyl-4-oxo-3,4-dihydrothieno[3,4-d]pyridazine-1-carboxamide]
2 |  |  |  |  |  | 189 to 191 | CCOC(=O)c1nn(-c2ccc(Cl)cc2)c(=O)c2c(N)scc12 [Compound 17, Ethyl 5-amino-3-(4-chlorophenyl)-4-oxo-3,4-dihydrothieno[3,4-d]pyridazine-1-carboxylate]
